From patent publication US20240150356A1, “Pyrimidine amide compounds and use thereof” (ALPHALA CO., LTD., priority 2019, published 2024)

Test system: Hep3B cells (hepatocellular carcinoma cell line)
Experiment: In vitro MTS cell viability assay (NCI-60 methodology), Hep3B
Format: cell-based
Details: Homo sapiens, 48 h, Table 1, MTS, 2 days drug incubation, 50% reduction vs time zero, read-out: Hep3B LC50
Experimental: The cell viability measurement is based on the NCI-60 screening methodology (Nat. Rev. Cancer 6, 813-823, 2006). Briefly, cells are inoculated into 96-well plates at the optimal plating density. After 24 h, one of the two plates for Hep3B cell line is processed to determine a time zero cell viability (Tz) by MTS assay (Promega). Compounds are added over a 2-fold serial dilution to provide a total five drug concentrations plus DMSO control. Plates are incubated for a further 2 days, then measured cell viability by MTS assay [control growth (C) and test growth in the presence of drug at the five concentration levels (Ti)]. The LC50 is calculated from [(Ti−Tz)/Tz]×100=−50, which is the drug concentration resulting in a 50% reduction at the end of the drug treatment as compared to that at the beginning.
The compounds prepared in Tables 1-10 were tested in three in vitro assays, and the results are shown in Tables 1-10 for Hep3B and Table 11 for SW480 and NCI-H460 shown below. Herein, Hep3B refers to hepatocellular carcinoma cell line, SW480 refers to colon adenocarcinoma cell line, and NCI-H460 refers to human lung cancer cell line.
Shown in following Tables 1 to 10 are the structures and in vitro activities of exemplary compounds of formula (I).

SMILES | LC50
CCOc1ccc(-c2nc(NC(=O)c3ccc([N+](=O)[O-])s3)c3cnn(C)c3n2)cc1 [Compound 1-2, N-(6-(4-ethoxyphenyl)-1-methyl-1H-pyrazolo[3,4-d]pyrimidin-4-yl)-5-nitrothiophene-2-carboxamide] | 3240 nM
COc1ccc(/C=C/c2nc(NC(=O)c3ccc([N+](=O)[O-])s3)c3cnn(C)c3n2)cc1 [Compound 1-12, (E)-N-(6-(4-methoxystyryl)-1-methy-1H-pyrazolo[3,4-d]pyrimidin-4-yl)-5-nitrothiophene-2-carboxamide] | > 5000 nM

Same assay, conditions: Homo sapiens, 48 h, Table 3, MTS, 2 days drug incubation, 50% reduction vs time zero, read-out: Hep3B LC50

SMILES | LC50
Cc1nn(C)c2c(NC(=O)c3ccc([N+](=O)[O-])s3)nc(-c3ccc(C(F)(F)F)cc3)nc12 [Compound 3-1, N-(1,3-dimethyl-5-(4-(trifluoromethyl)phenyl)-1H-pyrazolo[4,3-d]pyrimidin-7-yl)-5-nitrothiophene-2-carboxamide] | 2220 nM

Same assay, conditions: Homo sapiens, 48 h, Table 4, MTS, 2 days drug incubation, 50% reduction vs time zero, read-out: Hep3B LC50

SMILES | LC50
Cc1csc2c(NC(=O)c3ccc([N+](=O)[O-])s3)nc(-c3cccc(F)c3)nc12 [Compound 4-7, N-(2-(3-fluorophenyl)-7-methylthieno[3,2-d]pyrimidin-4-yl)-5-nitrothiophene-2-carboxamide] | 1280 nM
O=C(Nc1nc(-c2cc(C(F)(F)F)ccc2F)nc2c(-c3ccccc3)csc12)c1ccc([N+](=O)[O-])s1 [Compound 4-17, N-(2-(2-fluoro-5-(trifluoromethyl)phenyl)-7-phenylthieno[3,2-d]pyrimidin-4-yl)-5-nitrothiophene-2-carboxamide] | 860 nM
CC(C)(C)OC(=O)N1CCC(n2cnc3c(NC(=O)c4ccc([N+](=O)[O-])s4)nc(-c4ccc(F)cc4)nc32)CC1 [Compound 4-20, tert-butyl 4-(2-(4-fluorophenyl)-6-(5-nitrothiophene-2-carboxamide)-9H-purin-9-yl) piperidine-1-carboxylate] | > 1250 nM

Same assay, conditions: Homo sapiens, 48 h, Table 5, MTS, 2 days drug incubation, 50% reduction vs time zero, read-out: Hep3B LC50

SMILES | LC50
O=C(Nc1nc(N2CCOCC2)nc2c1cnn2-c1ccccc1)c1ccc([N+](=O)[O-])s1 [Compound 5-7, N-(6-morpholino-1-phenyl-1H-pyrazolo[3,4-d]pyrimidin-4-yl)-5-nitrothiophene-2-carboxamide] | 1460 nM
CCOCCOCCOc1ccc(-c2nc(NC(=O)c3ccc([N+](=O)[O-])s3)c3cnn(-c4ccccc4)c3n2)cn1 [Compound 5-57, N-(6-(6-(2-(2-ethoxyethoxy)ethoxy)pyridin-3-yl)-1-phenyl-1H-pyrazolo[3,4-d]pyrimidin-4-yl)-5-nitrothiophene-2-carboxamide] | 790 nM
C[C@@H]1CN(c2nc(NC(=O)c3ccc([N+](=O)[O-])s3)c3cnn(-c4ccccc4)c3n2)C[C@H](C)O1 [Compound 5-8, N-(6-((2S,6R)-2,6-dimethylmorpholino)-1-phenyl-1H-pyrazolo[3,4-d]pyrimidin-4-yl)-5-nitrothiophene-2-carboxamide] | 1710 nM
O=C(Nc1nc(-c2ccc(Cl)c(Cl)c2)nc2c1cnn2-c1ccccc1)c1ccc([N+](=O)[O-])s1 [Compound 5-48, N-(6-(3,4-dichlorophenyl)-1-phenyl-1H-pyrazolo[3,4,d]pyrimidin-4-yl)-5-nitrothiophene-2-carboxamide] | 410 nM

Same assay, conditions: Homo sapiens, 48 h, Table 6, MTS, 2 days drug incubation, 50% reduction vs time zero, read-out: Hep3B LC50

SMILES | LC50
CC(C)(C)c1ccc(-n2ncc3c(NC(=O)c4ccc([N+](=O)[O-])s4)nc(N4CCCCC4)nc32)cc1 [Compound 6-63, N-(1-(4-(tert-butyl)phenyl)-6-(piperidin-1-yl)-1H-pyrazolo[3,4-d]pyrimidin-4-yl)-5-nitrothiophene-2-carboxamide] | 1920 nM
CC1CCCN(c2nc(NC(=O)c3ccc([N+](=O)[O-])s3)c3cnn(-c4ccc(C(C)(C)C)cc4)c3n2)C1 (stereo not drawn) [Compound 6-64, N-(1-(4-(tert-butyl)phenyl)-6-(3-methylpiperidin-1-yl)-1H-pyrazolo[3,4-d]pyrimidin-4-yl)-5-nitrothiophene-2-carboxamide] | 1070 nM
COCCOc1ccc(-c2nc(NC(=O)c3ccc([N+](=O)[O-])s3)c3cnn(-c4ccc(OC)cc4)c3n2)cn1 [Compound 6-26, N-(6-(6-(2-methoxyethoxy)pyridin-3-yl)-1-(4-methoxyphenyl)-1H-pyrazolo[3,4,d]pyrimidin-4-yl)-5-nitrothiophene-2-carboxamide] | 220 nM
O=C(Nc1nc(-c2cccc(OC(F)(F)F)c2)nc2c1cnn2-c1cccc(Cl)c1)c1ccc([N+](=O)[O-])s1 [Compound 6-40, N-(1-(3-chlorophenyl)-6-(3-(trifluoromethoxy)phenyl)-1H-pyrazolo[3,4-d]pyrimidin-4-yl)-5-nitrothiophene-2-carboxamide] | 480 nM
CC(C)(C)c1ccc(-n2ncc3c(NC(=O)c4ccc([N+](=O)[O-])s4)nc(N4CCC[C@H]4C(=O)O)nc32)cc1 [Compound 6-70, (1-(4-(tert-butyl)phenyl)-4-(5-nitrothiophene-2-carboxamido)-1H-pyrazolo[3,4-d]pyrimidin-6-yl)-L-proline] | > 1250 nM
COc1ccc(-n2ncc3c(NC(=O)c4ccc([N+](=O)[O-])s4)nc(NC4CCCCC4)nc32)cc1 [Compound 6-15, N-(6-(cyclohexylamino)-1-(4-methoxyphenyl)-1H-pyrazolo[3,4-d]pyrimidin-4-yl)-5-nitrothiophene-2-carboxamide] | > 1250 nM
CCOCCOCCOc1ccc(-c2nc(NC(=O)c3ccc([N+](=O)[O-])s3)c3cnn(-c4ccc(F)cc4)c3n2)cn1 [Compound 6-137, N-(6-(6-(2-(2-ethoxyethoxy)ethoxy)pyridin-3-yl)-1-(4-fluorophenyl)-1H-pyrazolo[3,4-d]pyrimidin-4-yl)-5-nitrothiophene-2-carboxamide] | 180 nM
COCCOc1ccc(-c2nc(NC(=O)c3ccc([N+](=O)[O-])s3)c3cnn(-c4ccc(Cl)cc4)c3n2)cn1 [Compound 6-51, N-(1-(4-chlorophenyl)-6-(6-(2-methoxyethoxy)pyridin-3-yl)-1H-pyrazolo[3,4-d]pyrimidin-4-yl)-5-nitrothiophene-2-carboxamide] | 50 nM
CC1(C)CC=C(c2nc(NC(=O)c3ccc([N+](=O)[O-])s3)c3cnn(-c4ccc(F)cc4)c3n2)CC1 [Compound 6-144, N-(6-(4,4-dimethylcyclohex-1-en-1-yl)-1-(4-fluorophenyl)-1H-pyrazolo[3,4-d]pyrimidin-4-yl)-5-nitrothiophene-2-carboxamide] | 550 nM
O=C(Nc1nc(-c2ccc(C(F)(F)F)cc2)nc2c1cnn2-c1ccc(F)cc1)c1ccc([N+](=O)[O-])s1 [Compound 6-122, N-(1-(4-fluorophenyl)-6-(4-(trifluoromethyl)phenyl)-1H-pyrazolo[3,4-d]pyrimidin-4-yl)-5-nitrothiophene-2-carboxamide] | 280 nM

Same assay, conditions: Homo sapiens, 48 h, Table 8, MTS, 2 days drug incubation, 50% reduction vs time zero, read-out: Hep3B LC50

SMILES | LC50
C[C@@H]1C[C@@H](n2ncc3c(NC(=O)c4ccc([N+](=O)[O-])s4)nc(-c4ccc(Cl)nc4)nc32)CC(C)(C)C1 [Compound 8-16, N-(6-(6-chloropyridin-3-yl)-1-((1R,5S)-3,3,5-trimethylcyclohexyl)-1H-pyrazolo[3,4-d]pyrimidin-4-yl)-5-nitrothiophene-2-carboxamide] | 590 nM
CCOC(=O)N1CC[C@@H](n2ncc3c(NC(=O)c4ccc([N+](=O)[O-])s4)nc(-c4ccc(F)nc4)nc32)C1 [Compound 8-6, ethyl (R)-3-(6-(6-fluoropyridin-3-yl)-4-(5-nitrothiophene-2-carboxamido)-1H-pyrazolo[3,4-d]pyrimidin-1-yl)pyrrolidine-1-carboxylate] | > 2000 nM

Same assay, conditions: Homo sapiens, 48 h, Table 10, MTS, 2 days drug incubation, 50% reduction vs time zero, read-out: Hep3B LC50

SMILES | LC50
CC1CC(C)CC(n2ncc3c(NC(=O)c4ccc([N+](=O)[O-])s4)nc(-c4ccc(F)nc4)nc32)C1 (stereo not drawn) [Compound 10-68, N-(1-(3,5-dimethylcyclohexyl)-6-(6-fluoropyridin-3-yl)-1H-pyrazolo[3,4-d]pyrimidin-4-yl)-5-nitrothiophene-2-carboxamide] | 970 nM
CC(=O)c1ccc(-c2nc(NC(=O)c3ccc([N+](=O)[O-])s3)c3cnn(C4CCCCC4)c3n2)cc1 [Compound 10-28, N-(6-(4-acetylphenyl)-1-cyclohexyl-1H-pyrazolo[3,4-d]pyrimidin-4-yl)-5-nitrothiophene-2-carboxamide] | 1930 nM
COc1cncc(-c2nc(NC(=O)c3ccc([N+](=O)[O-])s3)c3cnn(C4CCCCC4)c3n2)c1 [Compound 10-22] | 1160 nM
O=C(Nc1nc(-c2ccc(OCC(F)(F)F)nc2)nc2c1cnn2C1CCCCC1)c1ccc([N+](=O)[O-])s1 [Compound 10-49, N-(1-cyclohexyl-6-(6-(2,2,2-trifluoroethoxy)pyridin-3-yl)-1H-pyrazolo[3,4-d]pyrimidin-4-yl)-5-nitrothiophene-2-carboxamide] | 630 nM
O=C(Nc1nc(-c2ccc(F)cc2Cl)nc2c1cnn2C1CCCCC1)c1ccc([N+](=O)[O-])s1 [Compound 10-46, N-(6-(2-chlor-4-fluorophenyl)-1-cyclohexyl-1H-pyrazolo[3,4-d]pyrimidin-4-yl)-5-nitrothiophene-2-carboxamide] | 1030 nM
